Laboratory results published in patent US7365086B2, “Pramipexole acid addition salts” (Synthon IP Inc., priority 2003, dated 2008).
Where a name gives a salt, the structure may show the parent alone.

Key:
[1] = DVS, 25° C.
Protocol: The hygroscopicity was measured using a Dynamic Vapor Sorption apparatus or DVS (Surface Measurement Systems Ltd, UK) at 25° C. and at various controlled relative humidity conditions from 0 to 90%.
First the relative humidity was changed from 0% to 60% and back to 0% (cycle 1). Subsequently, the relative humidity was raised by steps of 10% until 90% and reduced with steps of 10% until 0% (cycle 2). Finally, the relative humidity was changed to 60% and back to 0% (cycle 3). At each step the sample was conditioned till constant weight.

[2] = Approximate water solubility of pramipexole acid addition salts (saturation in water, shaken overnight, evaporation and weighing); details: thermodynamic from solid
Protocol: In general the acid addition salt was added to 2 ml of water in a test tube (1 ml of water was used for some of the very soluble salts) until a residue remained. The tube was shaken overnight at room temperature. The next morning 1 ml of the clear solution from above the solid residue was removed from the tube. This sample was evaporated and the residue was dried and weighed. In this way the approximate solubility of the salt in the water was determined.

- water uptake relative to dry mass at 60% relative humidity ([1]; 60% relative humidity): over 1.2%
- total water uptake relative to the dry mass in the step from 70% and 80% relative humidity ([1]; 70% to 80% relative humidity): 5%
- solubility [2]: > 300 mg/mL
Structure (SMILES): CCCN[C@H]1CCc2nc(N)sc2C1 [Pramipexole dihydrochloride monohydrate, pramipexole dihydrochloride monohydrate]
